Reference: EP4321514B1, “COMPOUND HAVING ALK INHIBITORY ACTIVITY, PREPARATION METHOD THEREFOR AND USE THEREOF” (CGeneTech (Suzhou, China) Co., Ltd., priority 2021, dated 2022)

Legend:
[1] = test system: human anaplastic large cell lymphoma cell Karpas 299; test: ALK gene fusion cell proliferation inhibition test (CCK-8); assay type: cell-based; conditions: 72 hours incubation, CCK-8, absorbance at 450 nm
Description: The 96-well culture plate was placed in a 5 % carbon dioxide incubator at 37 °C to be cultured overnight. A test compound was formulated into a 10 mM storage solution with DMSO, and the 10mM storage solution was gradually diluted with DMSO at a dilution ration of 1:4 to obtain 9 concentration gradients of solutions of the test compound. The test compound was diluted with culture medium to 5 times the set final concentration of corresponding action, and the diluted solution of the test compound was added at 25 µL/well to corresponding cell wells according to the set compound layout, and then incubated in a 5 % carbon dioxide incubator at 37 °C for 72 hours. After 72 hours, 10 µL of CCK-8 was added into a cell culture medium, and the culture solution was sucked from adherent cells, then a freshly prepared CCK-8 detection solution was added and the cells were incubated in a 37 °C incubator for 1-4 hours. The absorbance at 450 nm wavelength on the SpectraMax i3X Microplate Reader was measured after gently shaking, with the absorbance at 650 nm as a reference.

ALK kinase = target: T1, ALK kinase (Homo sapiens, UniProt Q9UM73); test: ALK kinase inhibition test; assay type: biochemical; conditions: 0.4 ng/well ALK kinase, 5 µM ATP, fluorescence 665 nm/615 nm
T1 construct: purchased Thermo Scientific
Description: The inhibitory activity of the compound in the present application on ALK kinase will be determined through in vitro tests, which can be represented by IC50 value.
4 µL of the diluted solution of the test compound and 2 µL of 0.4 ng/well ALK kinase solution (Thermo Scientific) were added into reaction wells in turn, incubated for 10 min at room temperature, then 4 µL of 0.7 µM biotin-labeled tyrosine kinase substrate and 5 µM ATP solution were added to start the kinase reaction.
Software Graphpad Prism 6 was used to fit an IC50 curve and calculate an IC50 value.

T1 sequence (Q9UM73 19-1620): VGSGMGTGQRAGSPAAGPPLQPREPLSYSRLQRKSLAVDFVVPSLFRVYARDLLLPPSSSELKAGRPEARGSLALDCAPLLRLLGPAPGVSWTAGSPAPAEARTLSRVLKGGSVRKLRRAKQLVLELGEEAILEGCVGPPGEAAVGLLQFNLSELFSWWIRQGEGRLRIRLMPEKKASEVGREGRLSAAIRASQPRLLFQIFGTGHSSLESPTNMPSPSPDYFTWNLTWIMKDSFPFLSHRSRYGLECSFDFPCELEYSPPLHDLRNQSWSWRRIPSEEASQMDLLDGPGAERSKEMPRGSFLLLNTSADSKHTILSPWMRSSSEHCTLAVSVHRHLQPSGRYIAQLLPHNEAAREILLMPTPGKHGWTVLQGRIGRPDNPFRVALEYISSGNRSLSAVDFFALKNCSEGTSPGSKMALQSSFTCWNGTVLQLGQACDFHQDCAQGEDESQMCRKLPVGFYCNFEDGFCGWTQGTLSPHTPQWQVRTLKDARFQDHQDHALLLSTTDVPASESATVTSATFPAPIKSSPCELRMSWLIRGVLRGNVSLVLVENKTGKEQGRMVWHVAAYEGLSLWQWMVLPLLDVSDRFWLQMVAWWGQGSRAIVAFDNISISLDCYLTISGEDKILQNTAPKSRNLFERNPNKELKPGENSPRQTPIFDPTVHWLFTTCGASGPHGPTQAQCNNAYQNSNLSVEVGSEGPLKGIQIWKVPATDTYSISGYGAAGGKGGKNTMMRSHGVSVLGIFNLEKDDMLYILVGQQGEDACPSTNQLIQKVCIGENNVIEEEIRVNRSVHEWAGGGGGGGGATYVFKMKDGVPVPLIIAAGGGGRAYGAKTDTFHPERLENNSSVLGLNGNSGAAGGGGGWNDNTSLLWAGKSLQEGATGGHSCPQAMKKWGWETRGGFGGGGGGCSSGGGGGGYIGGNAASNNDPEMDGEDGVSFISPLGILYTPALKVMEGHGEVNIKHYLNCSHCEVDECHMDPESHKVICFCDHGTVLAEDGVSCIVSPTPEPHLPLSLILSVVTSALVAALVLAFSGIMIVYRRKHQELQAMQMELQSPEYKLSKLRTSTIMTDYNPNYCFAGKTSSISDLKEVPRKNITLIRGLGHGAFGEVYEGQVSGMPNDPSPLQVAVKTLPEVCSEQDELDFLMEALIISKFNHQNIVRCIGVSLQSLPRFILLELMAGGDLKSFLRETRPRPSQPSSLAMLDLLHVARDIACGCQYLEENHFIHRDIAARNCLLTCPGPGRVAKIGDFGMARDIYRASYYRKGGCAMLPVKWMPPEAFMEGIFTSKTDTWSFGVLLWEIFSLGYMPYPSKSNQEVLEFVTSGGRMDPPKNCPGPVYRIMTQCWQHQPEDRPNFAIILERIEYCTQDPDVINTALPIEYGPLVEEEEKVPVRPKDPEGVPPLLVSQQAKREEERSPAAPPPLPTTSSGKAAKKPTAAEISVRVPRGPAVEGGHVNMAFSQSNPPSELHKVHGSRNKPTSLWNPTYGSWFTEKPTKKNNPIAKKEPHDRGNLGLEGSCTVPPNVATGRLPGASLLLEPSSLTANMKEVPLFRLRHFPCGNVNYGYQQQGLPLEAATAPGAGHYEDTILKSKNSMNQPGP

Compound | IC50 [1] [nM] | IC50 (ALK kinase) [nM]
C#Cc1ccc2c3c([nH]c2c1)C(C)(C)c1cc(N2CCC(N4CCOCC4)CC2)c(CC)cc1C3=O [Example E1, 9-ethyl-3-ethynyl-6,6-dimethyl-8-(4-morpholinopiperidin-1-yl)-5,6-dihydro-11H-benzo[b]carbazol-11-one] | 7.34 | 5.09
C#Cc1ccc2c3c([nH]c2c1)C(C)(C)c1cc(N2CCC(N(C)C)CC2)c(CC)cc1C3=O [Example E6, 8-(4-(dimethylamino)piperidin-1-yl)-9-ethyl-3-ethynyl-6,6-dimethyl-5,6-dihydro-11H-benzo[b]car bazol-11-one] | 107 | 21
C#Cc1ccc2c3c([nH]c2c1)C(C)(C)c1cc(N2CCNCC2)c(CC)cc1C3=O [Example E7, 9-ethyl-3-ethynyl-6,6-dimethyl-8-(piperazin-1-yl)-5H-benzo[b]carbazol-11(6H)-one] | 40.3 | 7.41
C#Cc1ccc2c3c([nH]c2c1)C(C)(C)c1cc(C2CCNCC2)c(CC)cc1C3=O [Example E8, 9-ethyl-3-ethynyl-6,6-dimethyl-8-(piperidin-4-yl)-5,6-dihydro-11H-benzo[b]carbazol-11-one] | 109 | 6.6
C#Cc1ccc2c3c([nH]c2c1)C(C)(C)c1cc(C2CCN(C)CC2)c(CC)cc1C3=O [Example E9, 9-ethyl-3-ethynyl-6,6-dimethyl-8-(1-methylpiperidin-4-yl)-5,6-dihydro-11H-benzo[b]carbazol-11-one] | 54.2 | 8.11
C#Cc1ccc2c3c([nH]c2c1)C(C)(C)c1cc(C2CCN(C4CC4)CC2)c(CC)cc1C3=O [Example E10, 8-(1-cyclopropylpiperidin-4-yl)-9-ethyl-3-ethynyl-6,6-dimethyl-5,6-dihydro-11H-benzo[b]carbazol-11-one] | 208 | 20.5
C#Cc1ccc2c3c([nH]c2c1)C(C)(C)c1cc(N2CCC(N4CCN(C5CC5)CC4)CC2)c(CC)cc1C3=O [Example E11, 8-(4-(4-cyclopropylpiperazin-1-yl)piperidin-1-yl)-9-ethyl-3-ethynyl-6,6-dimethyl-5,6-dihydro-11 H-benzo[b]carbazol-11-one] | 186 | 59
C#Cc1ccc2c3c([nH]c2c1)C(C)(C)c1cc(N2CCC(N4CCOCC4)CC2)c(C#N)cc1C3=O [Example E12, 3-ethynyl-6,6-dimethyl-8-(4-morpholinopiperidin-1-yl)-11-oxo-6,11-dihydro-5H-benzo[b]carbazole-9-carbonitrile] | 8.71 | 6.78

Other lines, results leading:

IC50 [1] [nM] | IC50 (ALK kinase) [nM] | Compound
18.1 | 7.38 | C#Cc1ccc2c3c([nH]c2c1)C(C)(C)c1cc(N2CCN(C)CC2)c(CC)cc1C3=O [Example E2, 9-ethyl-3-ethynyl-6,6-dimethyl-8-(4-methylpiperazin-1-yl)-5,6-dihydro-11H-benzo[b]carbazol-11-one]
144 | 37.8 | C#Cc1ccc2c3c([nH]c2c1)C(C)(C)c1cc(N2CCN(C4CC4)CC2)c(CC)cc1C3=O [Example E3, 8-(4-cyclopropylpiperazin-1-yl)-9-ethyl-3-ethynyl-6,6-dimethyl-5,6-dihydro-11H-benzo[b]carbazol-11-one]
32.6 | 6.35 | C#Cc1ccc2c3c([nH]c2c1)C(C)(C)c1cc(N2CCC(N4CCC4)CC2)c(CC)cc1C3=O [Example E4, 8-(4-(azetidin-1-yl)piperidin-1-yl)-9-ethyl-3-ethynyl-6,6-dimethyl-5,6-dihydro-11H-benzo[b]carbazol-11-one]
24.9 | 13.8 | C#Cc1ccc2c3c([nH]c2c1)C(C)(C)c1cc(N2CCC(N4CCCC4)CC2)c(CC)cc1C3=O [Example E5, 9-ethyl-3-ethynyl-6,6-dimethyl-8-(4-(pyrrolidin-1-yl)piperidin-1-yl)-5,6-dihydro-11H-benzo[b]car bazol-11-one]
